Literature values in patent publication US7777051B2, “Asymmetric benzimidazoles and related compounds as potassium channel modulators” (Icagen, Inc., priority 2003, dated 2010).

What was measured:
SK2 subtype channels = SK2 subtype channels (Rattus norvegicus, UniProt P70604); conditions: patch clamp
[1] = target: T1, recombinant human SK4 (hIK1 or hKCa4) channels (Homo sapiens, UniProt O15554+P0DP23); conditions: applied to the inside of membrane patches, concentrations up to 100 μM; HEK 293
T1 construct: host or cells: HEK 293 cells (transfected, membrane patches)

Compound	activation of SK4 channels [1]	also measured
CN(C)CCC=C1c2ccccc2CCc2ccccc21 [amitriptyline]		block of SK2 channel currents (SK2 subtype channels): block SK2 channel currents with micromolar affinity
NC(=O)N1c2ccccc2C=Cc2ccccc21 [carbamazepine]		block of SK2 channel currents (SK2 subtype channels): block SK2 channel currents with micromolar affinity
O=C1N(c2ccccc2)c2ccccc2C1(Cc1ccncc1)Cc1ccncc1 [linopirdine]		inhibition of SK channels (SK channels): ineffective at inhibiting SK channels
Nc1c2c(nc3ccccc13)CCCC2 [tacrine]		block of SK2 channel currents (SK2 subtype channels): block SK2 channel currents with micromolar affinity
Barium	activated SK4 channels in a concentration-dependent manner	
cadmium	activated SK4 channels in a concentration-dependent manner	
calcium	activated SK4 channels in a concentration-dependent manner	
cobalt	did not activate the SK4 channels	
iron	did not activate the SK4 channels	
lead	activated SK4 channels in a concentration-dependent manner	
magnesium	did not activate the SK4 channels	
strontium	activated SK4 channels in a concentration-dependent manner	
zinc	did not activate the SK4 channels	
